Measurements published in patent US20090264384A1, “INDOLE, BENZIMIDAZOLE, AND BENZOLACTAM BORONIC ACID COMPOUNDS, ANALOGS THEREOF AND METHODS OF USE THEREOF” (Nuada, Inc., priority 2004, published 2009).

Experiments:
[1] = test system: chronic colitis provoked by trinitrobenzene sulphonic acid (TNBS); assay: Rat model of chronic colitis provoked by TNBS over 14 days, treatment from Day 1; type: in vivo
[2] = target: Ca^2+ channel (L, DHP site) (Rattus norvegicus, UniProt P22002); assay: Ca^2+ channel (L, DHP site) binding assay; conditions: read-out: % Inhibition of Control Specific Binding
Ca^2+ channel (L, DHP site), sequence (P22002 whole entry): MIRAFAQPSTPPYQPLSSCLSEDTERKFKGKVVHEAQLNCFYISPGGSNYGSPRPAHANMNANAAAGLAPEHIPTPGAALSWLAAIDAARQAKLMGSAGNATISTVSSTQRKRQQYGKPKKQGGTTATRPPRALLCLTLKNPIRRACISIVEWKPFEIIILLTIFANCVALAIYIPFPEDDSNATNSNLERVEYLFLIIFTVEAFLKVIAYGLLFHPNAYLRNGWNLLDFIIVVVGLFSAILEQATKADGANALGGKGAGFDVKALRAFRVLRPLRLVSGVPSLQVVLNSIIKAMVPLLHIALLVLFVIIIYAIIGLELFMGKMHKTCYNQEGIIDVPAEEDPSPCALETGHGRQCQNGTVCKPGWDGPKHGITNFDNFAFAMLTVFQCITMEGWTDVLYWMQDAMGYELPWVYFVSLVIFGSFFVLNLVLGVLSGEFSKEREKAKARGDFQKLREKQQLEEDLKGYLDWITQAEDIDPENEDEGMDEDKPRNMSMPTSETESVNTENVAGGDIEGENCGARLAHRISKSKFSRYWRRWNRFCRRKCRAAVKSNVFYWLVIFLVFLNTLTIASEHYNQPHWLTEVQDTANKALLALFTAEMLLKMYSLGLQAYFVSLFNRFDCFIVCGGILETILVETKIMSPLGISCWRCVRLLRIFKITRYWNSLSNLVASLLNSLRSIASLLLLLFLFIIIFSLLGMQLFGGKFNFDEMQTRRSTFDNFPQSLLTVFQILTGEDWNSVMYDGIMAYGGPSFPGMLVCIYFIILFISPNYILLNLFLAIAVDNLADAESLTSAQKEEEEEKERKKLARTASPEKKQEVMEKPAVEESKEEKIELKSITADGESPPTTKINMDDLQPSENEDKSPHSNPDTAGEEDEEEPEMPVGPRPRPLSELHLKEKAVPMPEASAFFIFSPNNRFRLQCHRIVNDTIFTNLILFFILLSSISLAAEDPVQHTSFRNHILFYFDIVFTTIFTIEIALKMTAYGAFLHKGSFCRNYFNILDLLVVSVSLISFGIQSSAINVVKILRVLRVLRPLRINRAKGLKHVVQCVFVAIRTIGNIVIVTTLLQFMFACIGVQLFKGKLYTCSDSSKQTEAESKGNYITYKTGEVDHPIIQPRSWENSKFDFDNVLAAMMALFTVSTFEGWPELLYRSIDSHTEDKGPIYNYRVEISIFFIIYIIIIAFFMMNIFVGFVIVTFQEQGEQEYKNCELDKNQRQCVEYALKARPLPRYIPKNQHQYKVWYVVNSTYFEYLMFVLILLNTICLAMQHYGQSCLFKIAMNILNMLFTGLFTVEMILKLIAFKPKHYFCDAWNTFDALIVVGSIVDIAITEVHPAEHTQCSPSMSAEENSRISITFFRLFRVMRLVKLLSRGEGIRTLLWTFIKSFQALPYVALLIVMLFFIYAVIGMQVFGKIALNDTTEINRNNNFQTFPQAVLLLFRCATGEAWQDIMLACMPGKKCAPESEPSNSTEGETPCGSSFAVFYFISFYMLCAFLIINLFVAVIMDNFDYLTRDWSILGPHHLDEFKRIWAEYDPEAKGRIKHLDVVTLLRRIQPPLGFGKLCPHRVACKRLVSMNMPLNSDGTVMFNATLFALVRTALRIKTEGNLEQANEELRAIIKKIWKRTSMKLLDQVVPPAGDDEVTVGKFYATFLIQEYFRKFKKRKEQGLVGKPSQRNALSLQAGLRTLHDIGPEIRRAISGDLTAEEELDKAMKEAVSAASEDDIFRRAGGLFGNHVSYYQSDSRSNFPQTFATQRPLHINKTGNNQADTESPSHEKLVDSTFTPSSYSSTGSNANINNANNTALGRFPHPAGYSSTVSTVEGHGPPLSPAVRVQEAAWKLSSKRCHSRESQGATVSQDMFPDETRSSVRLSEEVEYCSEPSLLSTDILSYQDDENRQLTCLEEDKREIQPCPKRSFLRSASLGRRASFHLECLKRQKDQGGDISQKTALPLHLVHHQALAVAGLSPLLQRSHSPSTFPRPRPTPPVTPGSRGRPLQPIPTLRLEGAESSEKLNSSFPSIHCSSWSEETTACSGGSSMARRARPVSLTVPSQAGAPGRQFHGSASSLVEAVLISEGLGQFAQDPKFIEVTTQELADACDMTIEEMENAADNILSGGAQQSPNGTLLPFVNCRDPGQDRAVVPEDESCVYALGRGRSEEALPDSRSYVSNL

Adenylyl cyclase (basal) = Adenylyl cyclase (basal) enzyme assay; type: biochemical, rat; conditions: 1.0E−05 M
Acetylcholinesterase(h) = target: T1, Acetylcholinesterase(h) (Homo sapiens, UniProt P22303); assay: Acetylcholinesterase(h) enzyme assay; type: biochemical; conditions: 1.0E−05 M
T1 construct: host or cells: HEK-293 cells
T1 sequence (P22303 32-614): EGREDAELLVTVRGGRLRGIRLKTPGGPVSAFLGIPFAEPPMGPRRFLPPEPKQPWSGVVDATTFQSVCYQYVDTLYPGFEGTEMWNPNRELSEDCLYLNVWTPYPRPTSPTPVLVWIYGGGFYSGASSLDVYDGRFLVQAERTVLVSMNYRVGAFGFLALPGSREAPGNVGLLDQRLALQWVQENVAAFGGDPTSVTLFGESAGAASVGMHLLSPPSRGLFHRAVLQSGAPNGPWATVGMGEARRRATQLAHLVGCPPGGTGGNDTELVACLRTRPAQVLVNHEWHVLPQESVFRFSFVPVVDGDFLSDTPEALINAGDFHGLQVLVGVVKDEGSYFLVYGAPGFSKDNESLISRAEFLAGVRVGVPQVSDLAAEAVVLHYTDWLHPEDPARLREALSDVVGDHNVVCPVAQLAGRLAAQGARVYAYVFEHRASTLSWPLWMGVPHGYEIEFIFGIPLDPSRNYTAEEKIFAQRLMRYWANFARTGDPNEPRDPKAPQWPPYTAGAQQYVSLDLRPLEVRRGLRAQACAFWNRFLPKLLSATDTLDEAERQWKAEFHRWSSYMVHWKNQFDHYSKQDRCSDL

MAO-A(h) = target: T2, MAO-A(h) (Homo sapiens, UniProt P21397); assay: MAO-A(h) enzyme assay; type: biochemical; conditions: 1.0E−05 M
T2 construct: human placenta; from tissue; host or cells: human placenta
T2 sequence (P21397 whole entry): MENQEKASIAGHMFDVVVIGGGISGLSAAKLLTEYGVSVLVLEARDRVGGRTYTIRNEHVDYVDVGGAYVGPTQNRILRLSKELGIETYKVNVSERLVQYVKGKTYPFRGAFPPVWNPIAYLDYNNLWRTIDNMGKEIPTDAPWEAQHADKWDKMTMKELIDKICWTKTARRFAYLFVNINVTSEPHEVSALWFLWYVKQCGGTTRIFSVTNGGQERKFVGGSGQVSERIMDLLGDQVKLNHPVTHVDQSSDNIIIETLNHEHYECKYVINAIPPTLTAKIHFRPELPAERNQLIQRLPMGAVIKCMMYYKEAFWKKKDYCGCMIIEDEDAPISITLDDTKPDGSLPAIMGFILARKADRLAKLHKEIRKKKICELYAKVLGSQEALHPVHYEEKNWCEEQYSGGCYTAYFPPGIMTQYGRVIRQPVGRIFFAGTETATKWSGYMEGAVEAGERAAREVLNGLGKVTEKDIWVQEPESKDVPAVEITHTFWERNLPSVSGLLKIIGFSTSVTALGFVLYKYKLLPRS

[3] = 50 mg/kg/day p.o. from Day 1, Day 14, vs CMC group

SMILES | macroscopic Damage Score ([1]; 50 mg/kg/day p.o. from Day 1, Day 14) | reduction in colon weight [1, 3] | reduction in colonic MPO activity [1, 3] | reduction in colonic TNF-α levels [1, 3] | reduction in colonic lesion area (% of the total area measured) [1, 3] | attenuation of TNBS-induced fall in body weight (% change of body weight at Day −1) ([1]; 50 mg/kg/day p.o. in divided doses from Day 1, over 14 days, vs CMC group) | inhibition at 10 µM [2] | % Stimulation Relative to Control (Adenylyl cyclase (basal)) | % Inhibition of Control Values (Acetylcholinesterase(h)) | % Inhibition of Control Values (MAO-A(h))
O=C(O)c1cc(/N=N/c2ccc(S(=O)(=O)Nc3ccccn3)cc2)ccc1O [sulfasalazine, reference compound] | reduced the damage score | significant (P<0.05) reduction in colon weight | significantly (P<0.001) reduced the elevated colonic levels of MPO | significantly reduced the elevated colonic levels of TNF-α | significantly (P<0.001) reduced the extent of macroscopic injury | reached statistical significance compared with the CMC challenged group on at Day 2, 3, 6 and 7 | – | – | – | –
N#Cc1ccc2c(ccn2CCCCCB(O)O)c1 [Example 20, 5-(5-cyano-1H-indol-1-yl)pentylboronic acid] | – | – | – | – | – | – | -10% | −3% | 11% | 6%
